Measured values from PMC8877233, “The Hydrophobicity and Antifungal Potentiation of Burkholdine Analogues” (Molecules, 2022).
Values after ≈ are worked out from the molar mass of the structure shown. Starred links: 1 amine or outer side, 2 acyl side, 3 side chain; linkers in the order of their positions; H or OH if unused. Positions of bridges follow the written chain, without caps; N, C: chain ends. Non-standard residues stand in square brackets, D forms with d. Residues, ends and D or L forms follow the SMILES beside them. *: point of attachment. X12 = CCCCCCCCCCC(=O)N[C@H](C(=O)NC[C@H](CC(=O)[*:1])N[*:2])[C@@H](C)O; X11 = CCCCCCCCNC(=O)[C@H](O)[C@@H](O)C(=O)NC[C@H](CC(=O)[*:1])N[*:2]; X10 = CCCCCCCCCCCC(=O)N[C@@H](CO)C(=O)NC[C@@H](CC(=O)[*:1])N[*:2]; X13 = CCCCCCCCCCC(=O)N[C@@H](CO)C(=O)NC[C@H](CC(=O)[*:1])N[*:2]; X5 = CCCCCCCCCCCC(=O)N[C@@H](CO)C(=O)NC[C@H](CC(=O)[*:1])N[*:2]; X6 = CCCCCCCCCCC(=O)N[C@@H](CO)C(=O)NC[C@@H](CC(=O)[*:1])N[*:2]; X7 = CCCCCCCCCCCC(=O)N[C@H](CO)C(=O)NC[C@@H](CC(=O)[*:1])N[*:2]; X1 = CCCCCCCCCCC(=O)N[C@H](CO)C(=O)NC[C@@H](CC(=O)[*:1])N[*:2]; X4 = CCCCCCCCCCCC(=O)N[C@H](CO)C(=O)NC[C@H](CC(=O)[*:1])N[*:2]; X8 = CCCCCCCCCCC(=O)N[C@H](CO)C(=O)NC[C@H](CC(=O)[*:1])N[*:2]; X9 = CCCCCCCCNC(=O)[C@H](O)[C@@H](O)C(=O)*; Undecanoyl = CCCCCCCCCCC(=O)*; Lauroyl = CCCCCCCCCCCC(=O)*; Orn = NCCC[C@H](N)C(=O)O

How the values were obtained:
[1] = RP-HPLC retention time as measure of hydrophilicity/hydrophobicity; type: physicochemical; settings: chromatographic, Cosmosil 5C18-AR-II 4.6 x 150 mm, linear gradient 30–70% MeCN/H2O (0.1% TFA) for 30 min, 1 mL/min, UV 220 nm
Description: […] In all cases, the retention times of the (S)-Dab-containing peptides were shorter than those of the (R)-Dab-containing peptides, which were similar to those bearing L-Orn. The retention times of the cyclic peptides were shorter for Tat > D-Ser > L-Thr > L-Ser, while peptides bearing the undecanoic acid moiety eluted […] than those bearing the decanoic acid by about 2 min.

[2] = test system: S. cerevisiae (ATCC204504); type: cell-based; settings: ATCC204504, 24 h
Description: Bacto yeast extract (0.63 g, 70161, Fluka, Barcelona, Spain), peptone (1.00 g, 26421, Mikuni, Japan), and glucose (1.00 g, 16806-25, Nacalai tesque, Japan) were added to H2O (50 mL) at room temperature and the mixture was heated to 60 °C. After 30 min, the mixture was sterilized by heating in an autoclave at 121 °C for 20 min.
DMSO (8 µL, 13406-55, Nacalai tesque, Japan) was added to YPD medium (750 µL). The test fungus culture solution (3 µL) was added to this solution (1.5 mL).
The inhibitor (each 1.0 mg; 3a–h, 4a–b, 5a–b, 6a–b, 7, 8) was dissolved in DMSO (40 µL).
The prepared test bacteria (50 µL) were placed in A1–A12 of a 96-well plate. Bk analogue (50 µL) was added to A1, pipetting was performed, and then 50 µL was extracted from A1 and placed in A2. This operation was repeated until A11, and 50 µL extracted from A11 was discarded. The well plate was closed and incubated at 30 °C. After 24 h, the MIC values were evaluated.

| Compound | tR [1] | MIC [2] |
| --- | --- | --- |
| CCCCCCCCCCC(=O)N[C@H](CO)C(=O)NC[C@@H]1CC(=O)N[C@H](CO)C(=O)N[C@H](Cc2ccc(O)cc2)C(=O)N[C@H](CC(N)=O)C(=O)NCC(=O)N[C@@H](CC(N)=O)C(=O)N[C@@H](CO)C(=O)N[C@@H](CC(N)=O)C(=O)N1 [Compound 3c, Cyclo-[Undecanoic Acid-D-Ser-(S)-7-D-Ser-D-Tyr-D-Asn-Gly-Asn-Ser-Asn]] ([dS][dY][dN]GNSN; linker N-C via X8) | 9.4 min | >200 µg/mL |
| CCCCCCCCCCC(=O)N[C@H](CO)C(=O)NC[C@H]1CC(=O)N[C@H](CO)C(=O)N[C@H](Cc2ccc(O)cc2)C(=O)N[C@H](CC(N)=O)C(=O)NCC(=O)N[C@@H](CC(N)=O)C(=O)N[C@@H](CO)C(=O)N[C@@H](CC(N)=O)C(=O)N1 [Compound 3g, Cyclo-[Undecanoic Acid-D-Ser-(R)-7-D-Ser-D-Tyr-D-Asn-Gly-Asn-Ser-Asn]] ([dS][dY][dN]GNSN; linker N-C via X1) | 9.6 min | >200 µg/mL |
| CCCCCCCCNC(=O)[C@H](O)[C@@H](O)C(=O)N[C@H]1CCCNC(=O)[C@H](CC(N)=O)NC(=O)[C@H](CO)NC(=O)[C@H](CC(N)=O)NC(=O)CNC(=O)[C@@H](CC(N)=O)NC(=O)[C@@H](Cc2ccc(O)cc2)NC(=O)[C@@H](CO)NC1=O [Compound 8, Cyclo-[(2R,3R)-2,3-Dihydroxy-4-(octylamino)-4-oxobutanoic Acid-Orn-D-Ser-D-Tyr-D-Asn-Gly-Asn-Ser-Asn]] (X9-[Orn][dS][dY][dN]GNSN; lactam 1-C) | 5.8 min | >200 µg/mL |
| CCCCCCCCCCCC(=O)N[C@@H](CO)C(=O)NC[C@H]1CC(=O)N[C@H](CO)C(=O)N[C@H](Cc2ccc(O)cc2)C(=O)N[C@H](CC(N)=O)C(=O)NCC(=O)N[C@@H](CC(N)=O)C(=O)N[C@@H](CO)C(=O)N[C@@H](CC(N)=O)C(=O)N1 [Compound 3f, Cyclo-[Dodecanoic Acid-Ser-(R)-7-D-Ser-D-Tyr-D-Asn-Gly-Asn-Ser-Asn]] ([dS][dY][dN]GNSN; linker N-C via X10) | 11.8 min | 200 µg/mL (≈ 181 µM) |
| CCCCCCCCCCCC(=O)N[C@@H](CO)C(=O)NC[C@@H]1CC(=O)N[C@H](CO)C(=O)N[C@H](Cc2ccc(O)cc2)C(=O)N[C@H](CC(N)=O)C(=O)NCC(=O)N[C@@H](CC(N)=O)C(=O)N[C@@H](CO)C(=O)N[C@@H](CC(N)=O)C(=O)N1 [Compound 3b, Cyclo-[Dodecanoic Acid-Ser-(S)-7-D-Ser-D-Tyr-D-Asn-Gly-Asn-Ser-Asn]] ([dS][dY][dN]GNSN; linker N-C via X5) | 11.7 min | 100 µg/mL (≈ 90.4 µM) |
| CCCCCCCCCCCC(=O)N[C@H](CO)C(=O)NC[C@H]1CC(=O)N[C@H](CO)C(=O)N[C@H](Cc2ccc(O)cc2)C(=O)N[C@H](CC(N)=O)C(=O)NCC(=O)N[C@@H](CC(N)=O)C(=O)N[C@@H](CO)C(=O)N[C@@H](CC(N)=O)C(=O)N1 [Compound 3h, Cyclo-[Dodecanoic Acid-D-Ser-(R)-7-D-Ser-D-Tyr-D-Asn-Gly-Asn-Ser-Asn]] ([dS][dY][dN]GNSN; linker N-C via X7) | 11.8 min | >200 µg/mL |
| CCCCCCCCCCC(=O)N[C@H](C(=O)N[C@H]1CCCNC(=O)[C@H](CC(N)=O)NC(=O)[C@H](CO)NC(=O)[C@H](CC(N)=O)NC(=O)CNC(=O)[C@@H](CC(N)=O)NC(=O)[C@@H](Cc2ccc(O)cc2)NC(=O)[C@@H](CO)NC1=O)[C@@H](C)O [Compound 7, Cyclo-[Undecanoic Acid-Thr-Orn-D-Ser-D-Tyr-D-Asn-Gly-Asn-Ser-Asn]] (Undecanoyl-T[Orn][dS][dY][dN]GNSN; lactam 2-C) | 10.6 min | >200 µg/mL |
| CCCCCCCCCCC(=O)N[C@@H](CO)C(=O)NC[C@H]1CC(=O)N[C@H](CO)C(=O)N[C@H](Cc2ccc(O)cc2)C(=O)N[C@H](CC(N)=O)C(=O)NCC(=O)N[C@@H](CC(N)=O)C(=O)N[C@@H](CO)C(=O)N[C@@H](CC(N)=O)C(=O)N1 [Compound 3e, Cyclo-[Undecanoic Acid-Ser-(R)-7-D-Ser-D-Tyr-D-Asn-Gly-Asn-Ser-Asn]] ([dS][dY][dN]GNSN; linker N-C via X6) | 9.4 min | >200 µg/mL |
| CCCCCCCCCCC(=O)N[C@@H](CO)C(=O)NC[C@@H]1CC(=O)N[C@H](CO)C(=O)N[C@H](Cc2ccc(O)cc2)C(=O)N[C@H](CC(N)=O)C(=O)NCC(=O)N[C@@H](CC(N)=O)C(=O)N[C@@H](CO)C(=O)N[C@@H](CC(N)=O)C(=O)N1 [Compound 3a, Cyclo-[Undecanoic Acid-Ser-(S)-7-D-Ser-D-Tyr-D-Asn-Gly-Asn-Ser-Asn]] ([dS][dY][dN]GNSN; linker N-C via X13) | 9.3 min | >200 µg/mL |
| CCCCCCCCCCCC(=O)N[C@H](CO)C(=O)NC[C@@H]1CC(=O)N[C@H](CO)C(=O)N[C@H](Cc2ccc(O)cc2)C(=O)N[C@H](CC(N)=O)C(=O)NCC(=O)N[C@@H](CC(N)=O)C(=O)N[C@@H](CO)C(=O)N[C@@H](CC(N)=O)C(=O)N1 [Compound 3d, Cyclo-[Dodecanoic Acid-D-Ser-(S)-7-D-Ser-D-Tyr-D-Asn-Gly-Asn-Ser-Asn]] ([dS][dY][dN]GNSN; linker N-C via X4) | 11.8 min | >200 µg/mL |
| CCCCCCCCCCC(=O)N[C@H](C(=O)NC[C@@H]1CC(=O)N[C@H](CO)C(=O)N[C@H](Cc2ccc(O)cc2)C(=O)N[C@H](CC(N)=O)C(=O)NCC(=O)N[C@@H](CC(N)=O)C(=O)N[C@@H](CO)C(=O)N[C@@H](CC(N)=O)C(=O)N1)[C@@H](C)O [Compound 4a, Cyclo-[Undecanoic Acid-Thr-(S)-7-D-Ser-D-Tyr-D-Asn-Gly-Asn-Ser-Asn]] ([dS][dY][dN]GNSN; linker N-C via X12) | 10.4 min | >200 µg/mL |
| CCCCCCCCNC(=O)[C@H](O)[C@@H](O)C(=O)NC[C@@H]1CC(=O)N[C@H](CO)C(=O)N[C@H](Cc2ccc(O)cc2)C(=O)N[C@H](CC(N)=O)C(=O)NCC(=O)N[C@@H](CC(N)=O)C(=O)N[C@@H](CO)C(=O)N[C@@H](CC(N)=O)C(=O)N1 [Compound 5a, Cyclo-[(2R,3R)-2,3-dihydroxy-4-(octylamino)-4-oxobutanoic Acid-(S)-7-D-Ser-D-Tyr-D-Asn-Gly-Asn-Ser-Asn]] ([dS][dY][dN]GNSN; linker N-C via X11) | 5.3 min | >200 µg/mL |

Continued, values first:

| tR [1] | MIC [2] | Compound |
| --- | --- | --- |
| – | >200 µg/mL | CCCCCCCCCCC(=O)N[C@H](CO)C(=O)N[C@H]1CCCNC(=O)[C@H](CC(N)=O)NC(=O)[C@H](CO)NC(=O)[C@H](CC(N)=O)NC(=O)CNC(=O)[C@@H](CC(N)=O)NC(=O)[C@@H](Cc2ccc(O)cc2)NC(=O)[C@@H](CO)NC1=O [Compound 6c, Cyclo-[Undecanoic Acid-D-Ser-Orn-D-Ser-D-Tyr-D-Asn-Gly-Asn-Ser-Asn]] (Undecanoyl-[dS][Orn][dS][dY][dN]GNSN; lactam 2-C) |
| 11.2 min | >200 µg/mL | CCCCCCCCCCCC(=O)N[C@H](CO)C(=O)N[C@H]1CCCNC(=O)[C@H](CC(N)=O)NC(=O)[C@H](CO)NC(=O)[C@H](CC(N)=O)NC(=O)CNC(=O)[C@@H](CC(N)=O)NC(=O)[C@@H](Cc2ccc(O)cc2)NC(=O)[C@@H](CO)NC1=O [Compound 6d, Cyclo-[Dodecanoic Acid-D-Ser-Orn-D-Ser-D-Tyr-D-Asn-Gly-Asn-Ser-Asn]] (Lauroyl-[dS][Orn][dS][dY][dN]GNSN; lactam 2-C) |
| 12.1 min | >200 µg/mL | CCCCCCCCCCCC(=O)N[C@@H](CO)C(=O)N[C@H]1CCCNC(=O)[C@H](CC(N)=O)NC(=O)[C@H](CO)NC(=O)[C@H](CC(N)=O)NC(=O)CNC(=O)[C@@H](CC(N)=O)NC(=O)[C@@H](Cc2ccc(O)cc2)NC(=O)[C@@H](CO)NC1=O [Compound 6b, Cyclo-[Dodecanoic Acid-Ser-Orn-D-Ser-D-Tyr-D-Asn-Gly-Asn-Ser-Asn]] (Lauroyl-S[Orn][dS][dY][dN]GNSN; lactam 2-C) |
| 9.7 min | >200 µg/mL | CCCCCCCCCCC(=O)N[C@@H](CO)C(=O)N[C@H]1CCCNC(=O)[C@H](CC(N)=O)NC(=O)[C@H](CO)NC(=O)[C@H](CC(N)=O)NC(=O)CNC(=O)[C@@H](CC(N)=O)NC(=O)[C@@H](Cc2ccc(O)cc2)NC(=O)[C@@H](CO)NC1=O [Compound 6a, Cyclo-[Undecanoic Acid-Ser-Orn-D-Ser-D-Tyr-D-Asn-Gly-Asn-Ser-Asn]] (Undecanoyl-S[Orn][dS][dY][dN]GNSN; lactam 2-C) |
